The test has as its target T1, F508del CFTR (Homo sapiens, UniProt P13569, DEL508-508).
T1 construct: Primary CF airway epithelial cells were obtained from the UNC Cystic Fibrosis Tissue Procurement and Cell Culture Core; host or cells: primary CF airway epithelial cells
In words: Equivalent current assay in primary CF airway epithelial cells (Corrector Activity, NAUC normalized to 3 μM VX809). The note with it: NAUC as % of positive control (VX-809). The class given is cell-based. On the procedure:
Primary CF airway epithelial cells were obtained from the UNC Cystic Fibrosis Tissue Procurement and Cell Culture Core. The cells are grown at 37° C. in a Heracell 150i incubator using growth media (BEGM, Fischer). Cells were then transferred to differentiation media (airway liquid interface media (ALI) media; Lechner J F and LaVeck M A, J. Tissue Culture Methods 1985, 9: 43-48) for a minimum of 4 weeks on coated Costar transwells. Two days before the assay the mucus on the apical surface of the cells was aspirated after incubating with 200 μL of differentiation media for at least thirty (30) minutes. One day before the assay test compounds were added to the basolateral surface of the cells at various test concentrations dissolved in DMSO. Duplicate wells were prepared giving a n=4 or n=6 protocol.
Cells were treated for 24 hours with various combinations and concentrations of the test articles, reference standard (3 μM VX809, positive control). Compounds stock solutions were prepared in DMSO and diluted 1/1000 into ALI media to their final assay concentration. Cells were treated with combination solutions (2 mL of each dilution) and incubated at 37° C. for 24 h.
For the equivalent current assay, cells on six Transwell (24-well) plates were treated. Each Transwell plate was filled with 200 μl of HBS on the apical surface and 2 ml on the basolateral surface. Plates were placed horizontally in a heated mount at 37° C. and equilibrated for 30 minutes. Resting current was measured for 15 min and then blocked by the apical addition of 5 μM benzamil. After 20 min, CFTR activator (10 μM forskolin) and potentiator (either 1 μM VX-770 or 3 μM FDL176) were added to both the apical and basolateral side to stimulate CFTR. An increase in chloride current is seen as an upward deflection of the trace. After another 60 min, CFTR-172 (a CFTR inhibitor, 20 μM) and/or bumetanide (20 uM) was added to block CFTR mediated chloride current.
The raw data, voltage vs. time and resistance vs. time for the equivalent current assay (sampling interval: 6 minutes) were transferred to Excel (Microsoft Office Professional, version 14.0.7106.5003) for analysis. CFTR specific current was computed from I=V/R (Ohms Law), the average amplitude of the increase in current elicited upon addition forskolin and ending upon addition of the CFTR channel specific blocker CFTR-172. This average is equivalent to the sum of the average forskolin activated and the average VX770-potentiated currents. The average current measured in vehicle (0.1% DMSO) treated cells, IV, was subtracted from the current for the test article, ITA, or from the corrector reference standard VX809 (3 uM, ISTD). For replicate measurements, the averaged vehicle subtracted response for the test article, was normalized to the averaged vehicle subtracted response of the reference corrector VX809 (3 μM).
INSC=(ITA−IV)(ave)/(ISTD−IV)(ave) (Equation 1)
A second endpoint, for the equivalent current assay, evaluated was NAUC, the normalized area under the curve (AUC) measuring the response after addition of forskolin and potentiator to the time point right before the addition of the CFTR inhibitor. The AUC is effectively the average response multiplied by the duration of the response. The AUC of the test article, AUCTA was then corrected by subtracting the average vehicle response, AUCV,ave over the same time range, and normalized as for the inhibitor-sensitive current to the difference of the corrector reference standard VX809 (3 μM VX809r,ave and the vehicle response:
NAUCTA=[AUCTA−AUCV,ave]/[AUCVx809r,ave−AUCV,ave] (Equation 2).
The normalized value for DMSO is 0.0 and for VX-809 alone is 1.0 for both of these equations.
Experiments were run with a minimum of n=4 replicates per concentration. Since the distribution for the ratio of two normal distributions is a Cauchy distribution, the median value must be used for the average and the average deviation must be used for the error of all normalized data. […]
T1 sequence (P13569 with tags, fused parts or gaps DEL508-508): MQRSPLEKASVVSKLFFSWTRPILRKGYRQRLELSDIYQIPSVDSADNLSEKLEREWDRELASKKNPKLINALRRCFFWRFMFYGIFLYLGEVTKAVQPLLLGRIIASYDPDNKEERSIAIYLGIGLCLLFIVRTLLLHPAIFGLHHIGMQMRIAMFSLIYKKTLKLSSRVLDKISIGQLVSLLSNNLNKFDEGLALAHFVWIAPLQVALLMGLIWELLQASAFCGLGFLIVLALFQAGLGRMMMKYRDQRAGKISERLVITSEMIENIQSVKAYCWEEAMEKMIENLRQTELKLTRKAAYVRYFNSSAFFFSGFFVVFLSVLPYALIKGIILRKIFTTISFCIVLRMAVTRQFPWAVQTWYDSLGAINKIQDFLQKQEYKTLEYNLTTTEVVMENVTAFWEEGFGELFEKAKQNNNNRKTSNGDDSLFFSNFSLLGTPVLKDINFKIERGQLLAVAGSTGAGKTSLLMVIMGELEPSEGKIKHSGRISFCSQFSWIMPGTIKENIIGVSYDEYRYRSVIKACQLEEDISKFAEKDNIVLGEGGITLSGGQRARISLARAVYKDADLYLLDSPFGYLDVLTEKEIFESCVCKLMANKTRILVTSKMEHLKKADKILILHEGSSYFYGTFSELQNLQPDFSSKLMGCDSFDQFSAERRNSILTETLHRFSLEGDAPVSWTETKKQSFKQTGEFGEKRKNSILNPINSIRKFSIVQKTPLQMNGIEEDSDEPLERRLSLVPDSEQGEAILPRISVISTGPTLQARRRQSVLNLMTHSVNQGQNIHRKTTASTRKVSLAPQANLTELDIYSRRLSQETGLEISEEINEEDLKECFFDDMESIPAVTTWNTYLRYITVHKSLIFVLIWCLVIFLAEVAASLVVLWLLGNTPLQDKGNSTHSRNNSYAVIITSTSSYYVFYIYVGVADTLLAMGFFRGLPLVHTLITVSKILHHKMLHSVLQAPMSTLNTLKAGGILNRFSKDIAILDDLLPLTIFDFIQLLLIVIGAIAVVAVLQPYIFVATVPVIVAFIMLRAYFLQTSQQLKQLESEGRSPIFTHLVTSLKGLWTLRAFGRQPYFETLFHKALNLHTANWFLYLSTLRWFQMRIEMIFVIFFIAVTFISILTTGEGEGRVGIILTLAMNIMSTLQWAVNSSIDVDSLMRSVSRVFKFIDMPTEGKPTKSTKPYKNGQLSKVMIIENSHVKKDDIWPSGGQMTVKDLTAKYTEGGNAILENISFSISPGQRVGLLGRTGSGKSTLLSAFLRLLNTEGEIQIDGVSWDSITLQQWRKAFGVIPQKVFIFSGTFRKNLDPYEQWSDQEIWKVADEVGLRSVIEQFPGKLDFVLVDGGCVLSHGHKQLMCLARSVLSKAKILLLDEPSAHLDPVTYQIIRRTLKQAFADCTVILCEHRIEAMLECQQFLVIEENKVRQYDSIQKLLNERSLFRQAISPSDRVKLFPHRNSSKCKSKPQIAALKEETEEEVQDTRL
As to `N#Cc1cccc(-c2nn(CC(=O)N(c3ccc4c(c3)OC(F)(F)O4)C3CC3)c(=O)c3ccoc23)c1` [Example 40], the “Corr Activity (NAUC)” value is given as “++ (NAUC 70-40% of positive control)”.
With `CN(C(=O)Cn1nc(-c2cccc(Cl)c2)c2cn[nH]c2c1=O)c1ccc2c(c1)OC(F)(F)O2` [Example 498] the entry was “+ (NAUC<40% of positive control)”; with `Cc1cc(C#N)cc(-c2nn(CC(=O)N3CCCc4c3ccc3c4OC(F)(F)O3)c(=O)c3ccoc23)c1` [Example 163], “+++ (NAUC>70% of positive control)”.
For `CCN(C(=O)Cn1nc(-c2cccc(Cl)c2)c2onc(C)c2c1=O)c1ccc2c(c1)OC(F)(F)O2` [Example 18] the value was “++ (NAUC 70-40% of positive control)”; for `CCN(C(=O)Cn1nc(-c2cc(F)cc(OC)c2)c2[nH]cnc2c1=O)c1ccc2c(c1)OC(F)(F)O2` [Example 261], “+++ (NAUC>70% of positive control)”; for `CCN(C(=O)Cn1nc(-c2cc(C#N)cc(C(F)F)c2)c2occc2c1=O)c1ccc2c(c1)OC(F)(F)O2` [Example 99], “+++ (NAUC>70% of positive control)”.
With `N#Cc1cc(-c2nn(CC(=O)N(c3ccc4c(c3)OC(F)(F)O4)C3CC3)c(=O)c3nc[nH]c23)ccc1N1CCC1` [Example 487] the entry was “++ (NAUC 70-40% of positive control)”.
Take `CCN(C(=O)Cn1nc(-c2cccc(C#N)c2)c2oc(C)cc2c1=O)c1ccc2c(c1)OC(F)(F)O2` [Example 69]: the “Corr Activity (NAUC)” value is “+++ (NAUC>70% of positive control)”.
For `CCN(C(=O)Cn1nc(-c2cc(Cl)cc(C#N)c2)c2oc(C3CCC3)cc2c1=O)c1ccc2c(c1)OC(F)(F)O2` [Example 237] the value was “++ (NAUC 70-40% of positive control)”; for `CCN(C(=O)Cn1nc(-c2cc(C#N)cc(C(F)(F)F)c2)c2oc(C(=O)NC(C)(C)C)cc2c1=O)c1ccc2c(c1)OC(F)(F)O2` [Example 144], “+++ (NAUC>70% of positive control)”.
With `CCN(C(=O)Cn1nc(-c2cccc(C#N)c2)c2oc(C(=O)N3CCCC34CC4)cc2c1=O)c1ccc2c(c1)OC(F)(F)O2` [Example 207] the entry was “+++ (NAUC>70% of positive control)”; with `CCN(C(=O)Cn1nc(-c2cc(C#N)cc(C(C)(C)C)c2)c2oc(C(=O)NC(C)(C)C)cc2c1=O)c1ccc2c(c1)OC(F)(F)O2` [Example 130], “+++ (NAUC>70% of positive control)”; with `O=C(Cn1nc(-c2cc(F)cc(C(F)(F)F)c2)c2[nH]cnc2c1=O)N(c1ccc2c(c1)OC(F)(F)O2)C1CC1` [Example 391], “++ (NAUC 70-40% of positive control)”.
With `CCN(C(=O)Cn1nc(-c2ccc3ocnc3c2)c2[nH]cnc2c1=O)c1ccc2c(c1)OC(F)(F)O2` [Example 303] the entry was “+ (NAUC<40% of positive control)”; with `CCN(C(=O)Cn1nc(-c2cccc(F)c2)c2c(c1=O)CCC2)c1ccc2nc(C)oc2c1` [Example 43], “+++ (NAUC>70% of positive control)”.
In the case of `CCN(C(=O)Cn1nc(-c2cccc(C#N)c2)c2oc(Cl)cc2c1=O)c1ccc2c(c1)OC(F)(F)O2` [Example 63], the “Corr Activity (NAUC)” value is given as “++ (NAUC 70-40% of positive control)”.
With `CCN(C(=O)Cn1nc(-c2cccc(Cl)c2)c2[nH]cnc2c1=O)c1ccc2c(c1)OC(F)(F)O2` [Example 26] the entry was “+++ (NAUC>70% of positive control)”; with `CCN(C(=O)Cn1nc(-c2cc(C)cc(F)c2)c2[nH]cnc2c1=O)c1ccc2c(c1)OC(F)(F)O2` [Example 262], “+++ (NAUC>70% of positive control)”; with `CCN(C(=O)Cn1nc(-c2cccc(F)c2)c2[nH]ccc2c1=O)c1ccc2c(c1)OC(F)(F)O2` [Example 501, N-(2,2-difluorobenzo[d][1,3]dioxol-5-yl)-N-ethyl-2-(7-(3-fluorophenyl)-4-oxo-1,4-dihydro-5H-pyrrolo[2,3-d]pyridazin-5-yl)acetamide], “+++ (NAUC>70% of positive control)”.
With `CN(C(=O)Cn1nc(-c2cccc(C#N)c2)c2oc(CN3CCCCC3)cc2c1=O)c1ccc2c(c1)OC(F)(F)O2` [Example 182, 2-(7-(3-cyanophenyl)-4-oxo-2-(piperidin-1-ylmethyl)furo[2,3-d]pyridazin-5(4H)-yl)-N-(2,2-difluorobenzo[d][1,3]dioxol-5-yl)-N-methylacetamide] the entry was “+++ (NAUC>70% of positive control)”; with `Cc1cc2c(cc1N(C)C(=O)Cn1nc(-c3cc(F)cc(C#N)c3)c3occ(C(F)(F)F)c3c1=O)OC(F)(F)O2` [Example 178], “+ (NAUC<40% of positive control)”; with `CN(C(=O)Cn1nc(-c2cccc(F)c2)c2cn[nH]c2c1=O)c1ccc2c(c1)OC(F)(F)O2` [Example 497], “+ (NAUC<40% of positive control)”.
For `CCN(C(=O)Cn1nc(-c2cc(Cl)cc(C#N)c2)c2oc(C(F)F)cc2c1=O)c1ccc2c(c1C)OC(F)(F)O2` [Example 196] the value was “++ (NAUC 70-40% of positive control)”; for `CN(C)c1ccc(-c2nn(CC(=O)N(c3ccc4c(c3)OC(F)(F)O4)C3CC3)c(=O)c3nc[nH]c23)cc1C#N` [Example 486], “+++ (NAUC>70% of positive control)”.
In the case of `CCN(C(=O)Cn1nc(-c2cc(F)cc(F)c2)c2occc2c1=O)c1ccc2c(c1)OC(F)(F)O2` [Example 175], the “Corr Activity (NAUC)” value was “+++ (NAUC>70% of positive control)”.
For `CCN(C(=O)Cn1nc(-c2ccc(C#N)c(Cl)c2)c2[nH]cnc2c1=O)c1ccc2c(c1)OC(F)(F)O2` [Example 336] the value was “++ (NAUC 70-40% of positive control)”.
With `CCN(C(=O)Cn1nc(-c2cccc(C#N)c2)c2occc2c1=O)c1cc2c(cc1C)OC(F)(F)O2` [Example 45] the entry was “+++ (NAUC>70% of positive control)”; with `Cc1c(N(C)C(=O)Cn2nc(-c3cc(Cl)cc(C#N)c3)c3oc(C(=O)NC(C)(C)C)cc3c2=O)ccc2c1OC(F)(F)O2` [Example 141], “+++ (NAUC>70% of positive control)”.
With `CCN(C(=O)Cn1nc(-c2cccc(C#N)c2)c2oc(C(=O)NC(C)(C)C(F)(F)F)cc2c1=O)c1ccc2c(c1)OC(F)(F)O2` [Example 149] the entry was “+++ (NAUC>70% of positive control)”; with `CCN(C(=O)Cn1nc(-c2ccc(C(F)(F)F)c(C(F)(F)F)c2)c2[nH]cnc2c1=O)c1ccc2c(c1)OC(F)(F)O2` [Example 345], “+ (NAUC<40% of positive control)”; with `CCc1cc2c(cc1N(CC)C(=O)Cn1nc(-c3cccc(C#N)c3)c3occc3c1=O)OC(F)(F)O2` [Example 56], “+ (NAUC<40% of positive control)”.
With `O=C(Cn1nc(-c2ccc(N3CCCC3)cc2)c2[nH]cnc2c1=O)N(c1ccc2c(c1)OC(F)(F)O2)C1CC1` [Example 490], the “Corr Activity (NAUC)” value is listed as “+ (NAUC<40% of positive control)”.
For `CN(C(=O)Cn1nc(-c2cc(C#N)cc(C(F)(F)F)c2)c2oc(C(=O)NC(C)(C)C)cc2c1=O)c1ccc2c(c1)OC(F)(F)O2` [Example 143] the value was “++ (NAUC 70-40% of positive control)”.
With `CN(C(=O)Cn1nc(-c2cccc(OC(F)(F)F)c2)c2occc2c1=O)c1ccc2c(c1)OC(F)(F)O2` [Example 90] the entry was “++ (NAUC 70-40% of positive control)”.

Values taken from US20220402925A1, “COMPOUNDS AND METHODS FOR THE TREATMENT OF CYSTIC FIBROSIS” (Flatley Discovery Lab, LLC, priority 2019, published 2022).
